# Earlier results as cited in patent US20100003322A1, “ENTERIC COATED HYDROPHOBIC MATRIX FORMULATION” (priority 2008, published 2010).
# Counter-ions that a name gives are not always drawn.
# Conditions: for solubility as described in the package insert: water, for gabapentin also basic and acidic aqueous solutions; for water solubility: volume of water that dissolves 1 g: 1 g of drug in the stated ml of water
SMILES,solubility as described in the package insert,water solubility: amount dissolved in 100 ml of water (in 100 ml of water),water solubility: volume of water that dissolves 1 g [mL]
"NCC1(CC(=O)O)CCCCC1 [gabapentin, 1-(aminomethyl)cyclohexaneacetic acid]",freely soluble,,
"CC[C@@H](C(N)=O)N1CCCC1=O [levetiracetam, (−)-(S)-α-ethyl-2-oxo-1-pyrrolidine acetamide]",very soluble,approximately 104 grams,
"CCCC(CCC)C(=O)[O-].[Na+] [sodium valproate, sodium 2-propylpentanoate]",,,0.4
COc1cccc(C2(O)CCCCC2CN(C)C)c1 (centres unmarked) [tramadol hydrochloride],,,~33
